Results taken from patent US9801850B2, “Antibacterial agent” (OSAKA UNIVERSITY, priority 2009, dated 2017).

Key:
Type in all cases: cell-based, Staphylococcus aureus
MRSA ATCC43300 [1] = test: MIC with addition of PG, LPS or D-Ala-D-Ala (Example 3); settings: MRSA (ATCC43300)
Procedure: (§1) Regarding EGCG-C16, whether or not the antibacterial action thereof against MSSA and MRSA is inhibited by the addition of: peptidoglycan (PG) or D-Ala-D-Ala, which are each a cell wall component; or lipopolysaccharide (LPS), which is an outer membrane component, was examined. The MIC measurement was carried out in the manner described in Section (2) of Example 2.
(§2) In Example 3, EGCG-C16 prepared in Example 1 was used as an antibacterial agent. In Comparative Example 3, unsubstituted EGCG was used as an antibacterial agent. […] Antibacterial agent solutions of EGCG-C16 and EGCG were prepared in the same manner as described in Section (2) of Example 1. Antibacterial agent solutions of the antibacterial agents other than EGCG-C16 and EGCG were prepared by dissolving them in PBS.
(§3) As additives, PG (Peptidoglycan Staphylococcus aureus, SIGMA-ALDRICH), D-Ala-D-Ala (SIGMA-ALDRICH), and LPS (Lipopolysaccharide Salmonella, SIGMA-ALDRICH) were provided. Each of the additives was dissolved in PBS, and the resultant solution was used as an additive solution.
(§4) Dilution series of the antibacterial agent solutions were prepared. Each of them was dispensed to a 96-well plate. Further, the additive solution was added thereto and mixed. After that, a bacterial culture solution of MRSA ATCC43300 or MSSA ATCC25923 was added thereto and cultured at 37° C. for 18 hours. In the mixture of the antibacterial agent solution, the additive solution, and the bacterial culture solution, the final concentrations of PG, D-Ala-D-Ala, and LPS were each set to 30 μg/ml. Unless otherwise stated, the minimum inhibitory concentration (MIC) was calculated in the same manner as described in Section (2) of Example 2.

MSSA ATCC25923 = test: as above; settings: MSSA (ATCC25923)
Procedure: as §1, §2, §3, §4

[2] = tested on: MRSA clinical isolate No. 8; test: Checker-board method, combination with β-lactam agent (Example 6); parameters: key to minimum EGCG-C16 concentration inhibiting growth alone: *MIC: The minimum EGCG-C16 concentration when the growth of the bacteria was inhibited using EGCG-C16 alone under a β-lactam agent free condition
Procedure: (§5) EGCG-C16 was dissolved in 100% DMSO, and each of the above-described β-lactam agents was dissolved in sterile distilled water. Thereafter, they were diluted with sterile distilled water so as to achieve predetermined concentrations, and the respective agents at the respective concentrations were combined one another. The change in MIC of each β-lactam agent by the addition of EGCG-C16 was measured by the checker-board method. […] The minimum inhibitory concentration (MIC) of each of the above-described β-lactam agents when used in combination with EGCG-C16 was measured in the same manner as described in Section (2) of Example 2, except that the MRSA ATCC43300 and the MRSA clinical isolate No. 8 used in Example 2 were used as the bacteria.
(§6) As Comparative Example 6, the minimum inhibitory concentration (MIC) was measured in the same manner as in Example 6, except that EGCG was used instead of EGCG-C16.

MRSA ATCC43300 [3] = test: as above; parameters: key to minimum EGCG-C16 concentration inhibiting growth alone: *MIC: The minimum EGCG-C16 concentration when the growth of the bacteria was inhibited using EGCG-C16 alone under a β-lactam agent free condition
Procedure: as §5, §6

[4] = +LPS (30 μg/mL), upper part of Table 9
[5] = +PG (30 μg/mL), upper part of Table 9 (PG/LPS series)
[6] = MH-broth free of additives, upper part of Table 9 (PG/LPS series)
[7] = concentration of EGCG-C16 or EGCG 0 μg/ml
[8] = concentration of EGCG-C16 or EGCG 8 μg/ml
[9] = MRSA ATCC43300, concentration of EGCG-C16 or EGCG 0 μg/ml
[10] = MRSA ATCC43300, concentration of EGCG-C16 or EGCG 8 μg/ml
[11] = MRSA ATCC43300, concentration of EGCG-C16 or EGCG 16 μg/ml
[12] = MRSA ATCC43300, concentration of EGCG-C16 or EGCG 32 μg/ml
[13] = MRSA ATCC43300, concentration of EGCG-C16 or EGCG 64 μg/ml
[14] = MRSA ATCC43300, concentration of EGCG-C16 or EGCG 128 μg/ml
[15] = +D-Ala-D-Ala (30 μg/mL), lower part of Table 9
[16] = +PG (30 μg/mL), lower part of Table 9 (PG/D-Ala-D-Ala series)
[17] = MH-broth free of additives, lower part of Table 9 (PG/D-Ala-D-Ala series)
[18] = MRSA ATCC43300, concentration of EGCG-C16 or EGCG 2 μg/ml
[19] = MRSA ATCC43300, concentration of EGCG-C16 or EGCG 4 μg/ml

## O=C(O[C@@H]1Cc2c(O)cc(O)cc2O[C@@H]1c1cc(O)c(O)c(O)c1)c1cc(O)c(O)c(O)c1 [EGCG, Epigallocatechin gallate, reference compound]
MRSA ATCC43300 [1]; [4]
  MIC: > 64 µg/mL
MRSA ATCC43300 [1]; [5]
  MIC: > 64 µg/mL
MRSA ATCC43300 [1]; [6]
  MIC: > 64 µg/mL
MSSA ATCC25923; [4]
  MIC: > 64 µg/mL
MSSA ATCC25923; [5]
  MIC: > 64 µg/mL
MSSA ATCC25923; [6]
  MIC: > 64 µg/mL
[2]; [7]
  MIC of ABPC when used in combination with EGCG-C16 or EGCG: 64 µg/mL
[2]; [8]
  MIC of ABPC when used in combination with EGCG-C16 or EGCG: 4 µg/mL
[2]; concentration of EGCG-C16 or EGCG 16 μg/ml
  MIC of ABPC when used in combination with EGCG-C16 or EGCG: 8 µg/mL
[2]; concentration of EGCG-C16 or EGCG 32 μg/ml
  MIC of ABPC when used in combination with EGCG-C16 or EGCG: 8 µg/mL
[2]; concentration of EGCG-C16 or EGCG 64 μg/ml
  MIC of ABPC when used in combination with EGCG-C16 or EGCG: 4 µg/mL
[2]; concentration of EGCG-C16 or EGCG 128 μg/ml
  MIC of ABPC when used in combination with EGCG-C16 or EGCG: 1 µg/mL
MRSA ATCC43300 [3]; ATCC43300, IPM susceptible, EGCG at 16 to 64 μg/ml, EGCG derivative in the examined concentration range
  antagonistic action in combination with IPM: weak antagonistic action
MRSA ATCC43300 [3]; [9]
  MIC of ABPC when used in combination with EGCG-C16 or EGCG: 32 µg/mL
  MIC of IPM when used in combination with EGCG-C16 or EGCG: 0.016 µg/mL
MRSA ATCC43300 [3]; [10]
  MIC of ABPC when used in combination with EGCG-C16 or EGCG: 8 µg/mL
  MIC of IPM when used in combination with EGCG-C16 or EGCG: 0.016 µg/mL
MRSA ATCC43300 [3]; [11]
  MIC of ABPC when used in combination with EGCG-C16 or EGCG: 4 µg/mL
  MIC of IPM when used in combination with EGCG-C16 or EGCG: 0.031 µg/mL
MRSA ATCC43300 [3]; [12]
  MIC of ABPC when used in combination with EGCG-C16 or EGCG: 4 µg/mL
  MIC of IPM when used in combination with EGCG-C16 or EGCG: 0.031 µg/mL
MRSA ATCC43300 [3]; [13]
  MIC of ABPC when used in combination with EGCG-C16 or EGCG: 2 µg/mL
  MIC of IPM when used in combination with EGCG-C16 or EGCG: 0.031 µg/mL
MRSA ATCC43300 [3]; [14]
  MIC of ABPC when used in combination with EGCG-C16 or EGCG: 1 µg/mL
  MIC of IPM when used in combination with EGCG-C16 or EGCG: 0.016 µg/mL

## EGCG-palmitate [EGCG-C16]
MRSA ATCC43300 [1]; [15]
  MIC: 8 µg/mL
MRSA ATCC43300 [1]; [4]
  MIC: 16 µg/mL
MRSA ATCC43300 [1]; [16]
  MIC: 16 µg/mL
MRSA ATCC43300 [1]; [5]
  MIC: 32 µg/mL
MRSA ATCC43300 [1]; [17]
  MIC: 8 µg/mL
MRSA ATCC43300 [1]; [6]
  MIC: 16 µg/mL
MSSA ATCC25923; [15]
  MIC: 16 µg/mL
MSSA ATCC25923; [4]
  MIC: 16 µg/mL
MSSA ATCC25923; [16]
  MIC: 32 µg/mL
MSSA ATCC25923; [5]
  MIC: 32 µg/mL
MSSA ATCC25923; [17]
  MIC: 16 µg/mL
MSSA ATCC25923; [6]
  MIC: 16 µg/mL
[2]; [7]
  MIC of ABPC when used in combination with EGCG-C16 or EGCG: 64 µg/mL
[2]; concentration of EGCG-C16 or EGCG 2 μg/ml
  MIC of ABPC when used in combination with EGCG-C16 or EGCG: 32 µg/mL
[2]; concentration of EGCG-C16 or EGCG 4 μg/ml
  MIC of ABPC when used in combination with EGCG-C16 or EGCG: 16 µg/mL
[2]; [8]
  MIC of ABPC when used in combination with EGCG-C16 or EGCG: 2 µg/mL
[2]; β-lactam agent free, mark stands in the column 16 μg/ml
  minimum EGCG-C16 concentration inhibiting growth alone: *MIC
MRSA ATCC43300 [3]; [9]
  MIC of ABPC when used in combination with EGCG-C16 or EGCG: 32 µg/mL
  MIC of IPM when used in combination with EGCG-C16 or EGCG: 0.016 µg/mL
MRSA ATCC43300 [3]; [18]
  MIC of ABPC when used in combination with EGCG-C16 or EGCG: 16 µg/mL
  MIC of IPM when used in combination with EGCG-C16 or EGCG: 0.016 µg/mL
MRSA ATCC43300 [3]; [19]
  MIC of ABPC when used in combination with EGCG-C16 or EGCG: 8 µg/mL
  MIC of IPM when used in combination with EGCG-C16 or EGCG: 0.016 µg/mL
MRSA ATCC43300 [3]; [10]
  MIC of ABPC when used in combination with EGCG-C16 or EGCG: 1 µg/mL
  MIC of IPM when used in combination with EGCG-C16 or EGCG: 0.004 µg/mL
MRSA ATCC43300 [3]; MRSA ATCC43300, β-lactam agent free, mark stands in the column 16 μg/ml
  minimum EGCG-C16 concentration inhibiting growth alone: *MIC
